Source: paper PMC4596572, “Ligand Discovery for the Alanine-Serine-Cysteine Transporter (ASCT2, SLC1A5) from Homology Modeling and Virtual Screening” (PLoS Computational Biology, 2015)

Assays:
[1] = target: T1, ASCT2 mediated glutamine uptake in C8161 melanoma cells (Homo sapiens, UniProt Q15758); assay: [3H]-L-glutamine uptake assay in C8161 cells; type: cell-based; settings: 15 min, 37°C, n = 3
T1 construct: endogenous in cells; host or cells: C8161 human melanoma cell line
T1 sequence (Q15758 1-541): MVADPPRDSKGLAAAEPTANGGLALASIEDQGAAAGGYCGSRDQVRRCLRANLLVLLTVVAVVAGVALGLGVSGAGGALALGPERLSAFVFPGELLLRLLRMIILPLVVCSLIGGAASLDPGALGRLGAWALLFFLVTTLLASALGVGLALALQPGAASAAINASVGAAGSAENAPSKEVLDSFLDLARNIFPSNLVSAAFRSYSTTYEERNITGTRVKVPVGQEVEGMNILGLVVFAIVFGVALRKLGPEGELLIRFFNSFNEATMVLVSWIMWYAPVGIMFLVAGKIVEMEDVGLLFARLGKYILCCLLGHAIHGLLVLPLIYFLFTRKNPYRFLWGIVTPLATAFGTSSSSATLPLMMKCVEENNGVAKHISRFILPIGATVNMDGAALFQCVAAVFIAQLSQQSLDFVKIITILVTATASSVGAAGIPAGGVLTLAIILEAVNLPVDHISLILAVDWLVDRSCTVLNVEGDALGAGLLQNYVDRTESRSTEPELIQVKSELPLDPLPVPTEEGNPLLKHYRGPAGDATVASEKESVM
Method: We have previously shown that ASCT2 mediates glutamine uptake in C8161 human melanoma cells, and that blocking ASCT2 activity inhibits cell growth and viability (Methods). […] In the presence these compounds, [^3H]-L-glutamine uptake was decreased in a dose-dependent manner in C8161 cells, in agreement with their elicitation of current as activators and potential substrates (Fig 8A–8C).
Human melanoma cell line C8161 culture was performed as previously described. Media used was DMEM/F12 medium (Life Technologies) containing 5% (v/v) fetal bovine serum (FBS), penicillin-streptomycin solution (Sigma-Aldrich). Cells were maintained at 37°C in a fully humidified atmosphere containing 5% CO2. Inhibitors (chloroalanine, AOC and γ-FBP) were resuspended in H2O, with control cells treated with the appropriate concentrations of vehicle alone.
C8161 cells (1 × 10^5/well) were incubated with [^3H]-L-glutamine (400 nM; PerkinElmer) in MEM media (Life Technologies) for 15 min at 37°C in the presence or absence of each inhibitor. Cells were collected and transferred to filter paper using a 96-well plate harvester (Wallac PerkinElmer), dried, exposed to scintillation fluid and counts measured using a liquid scintillation counter (PerkinElmer).

[2] = system: ASCT2 protein levels in C8161 cells; assay: Western blotting of ASCT2 protein levels; type: cell-based, human; settings: 5 mM, 48 hours
Method: To ensure these inhibitory effects were not due to changes in ASCT2 protein levels, we examined ASCT2 protein levels by Western blotting 48 hours after incubation with chloroalanine (5 mM), AOC (5 mM) or γ-FBP (5 mM) (Fig 8J). […] For example, γ-FBP is an inhibitor that deprives the cancer cells from nutrients and the activator Chloroalanine can potentially be further developed as a cytotoxic ligand.
Cells (5 × 10^5 per well) were seeded in 24 well plates, allowed to adhere overnight, and then incubated in the presence of 5 mM chloroalanine, AOC or γ-FBP for 48 hours. Cells were detached using Tryple and lysed in lysis buffer (50 μL; 20 mM Tris-HCl, 150 mM NaCl, 1% Triton X-100, 0.5% Na deoxycholate, 0.1% SDS) with protease inhibitor Cocktail III (Bioprocessing Biochemical, California). Protein was measured using micro-BCA method (Pierce) and loaded onto a 4–12% gel (Life Technologies), electrophoresed, and transferred to PVDF membrane. The membrane was blocked with 2.5% (w/v) BSA in PBS-Tween20, and incubated with primary (ASCT2, Cell Signaling; GAPDH, Abcam) and secondary antibodies. Secondary HRP-labeled antibodies (Millipore) were detected using chemiluminescence reagents (Pierce) on a Kodak imager (Kodak).

| IC50 [1] | SMILES | ASCT2 protein levels [2] |
| --- | --- | --- |
| 10 to 15 mM | O=C(O)C1CC(Cc2ccccc2F)CN1 (stereo not drawn) [γ-FBP] | no change |
| 10 to 15 mM | NC1(C(=O)O)COC1 | no change |

| SMILES | IC50 [1] | ASCT2 protein levels [2] |
| --- | --- | --- |
| NC(CCl)C(=O)O (stereo not drawn) [Chloroalanine] | 9.2 mM | reduced the levels of ASCT2 protein |
